From patent EP4562003B1, “NOVEL 7-SUBSTITUTED INDOLE SULFONAMIDE DERIVATIVES” (F. Hoffmann-La Roche AG, priority 2022, dated 2024)

Biological target: human GPR17 short isoform (Homo sapiens, UniProt Q13304)
Experiment: GPR17 cAMP assay (TR-FRET cAMP quantification, antagonist mode)
Type: cell-based
Details: CHO-K1 cells stably expressing human GPR17 short isoform; EC80 of agonist MDL29,951; forskolin 15µM; IBMX 0.5mM; 30 minutes at room temperature; read-out: hGPR17 cAMP IC50
How it was run: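 CHO-K1 cells stably expressing untagged human GPR17 short isoform, 10'000 cells/well in HBSS/10mM HEPES/0.1% BSA pH 7.4. Compounds added with EC80 MDL29,951 plus 0.5mM IBMX, then 15µM forskolin; 30 min at room temperature. cAMP read by TR-FRET after 90 min lysis; normalized to reference antagonist maximal activity, sigmoidal fit.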

Sequence of human GPR17 short isoform (Q13304 29-367): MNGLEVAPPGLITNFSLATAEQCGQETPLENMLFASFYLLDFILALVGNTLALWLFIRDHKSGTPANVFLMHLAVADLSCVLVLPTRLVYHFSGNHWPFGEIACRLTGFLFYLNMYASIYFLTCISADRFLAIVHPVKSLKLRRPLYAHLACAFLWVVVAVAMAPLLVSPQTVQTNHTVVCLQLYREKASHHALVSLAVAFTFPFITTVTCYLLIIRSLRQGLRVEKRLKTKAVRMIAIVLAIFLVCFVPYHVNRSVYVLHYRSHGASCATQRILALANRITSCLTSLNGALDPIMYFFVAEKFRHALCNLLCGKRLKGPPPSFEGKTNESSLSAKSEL

| Compound | IC50 [nM] |
| --- | --- |
| COc1nc(NS(=O)(=O)c2c[nH]c3c(-c4cnc(C)cn4)c(Cl)ccc23)nc(OC)c1CC(F)F [Example 82, 6-chloro-N-[5-(2,2-difluoroethyl)-4,6-dimethoxy-pyrimidin-2-yl]-7-(5-methylpyrazin-2-yl)-1H-indole-3-sulfonamide] | 47 |
| COc1nc(NS(=O)(=O)c2c[nH]c3c(-c4cnc(C)cn4)c(Cl)ccc23)nc(OC)c1OCC(F)F [Example 84, 6-chloro-N-[5-(2,2-difluoroethoxy)-4,6-dimethoxy-pyrimidin-2-yl]-7-(5-methylpyrazin-2-yl)-1H-indole-3-sulfonamide] | 52 |
| COc1nc(NS(=O)(=O)c2c[nH]c3c(-c4ncccn4)c(Cl)ccc23)nc(OC)c1C [Example 85, 6-chloro-N-(4,6-dimethoxy-5-methyl-pyrimidin-2-yl)-7-(2-pyrimidyl)-1H-indole-3-sulfonamide] | 44 |
| COc1nc(NS(=O)(=O)c2c[nH]c3c(-c4cncc(C)n4)c(Cl)ccc23)nc(OC)c1CC(F)F [Example 86, 6-chloro-N-[5-(2,2-difluoroethyl)-4,6-dimethoxy-pyrimidin-2-yl]-7-(6-methylpyrazin-2-yl)-1H-indole-3-sulfonamide] | 29 |
| COc1nc(NS(=O)(=O)c2c[nH]c3c(-c4cncc(C)n4)c(Cl)ccc23)nc(OC)c1OCC(F)F [Example 88, 6-chloro-N-[5-(2,2-difluoroethoxy)-4,6-dimethoxy-pyrimidin-2-yl]-7-(6-methylpyrazin-2-yl)-1H-indole-3-sulfonamide] | 27 |
| COc1nc(NS(=O)(=O)c2c[nH]c3c(-c4cncnc4)c(Cl)ccc23)nc(OC)c1OCC(F)F [Example 89, 6-chloro-N-[5-(2,2-difluoroethoxy)-4,6-dimethoxy-pyrimidin-2-yl]-7-(5-pyrimidyl)-1H-indole-3-sulfonamide] | 42 |
| COc1nc(NS(=O)(=O)c2c[nH]c3c(-c4cnc(Cl)cn4)c(Cl)ccc23)nc(OC)c1OCC(F)F [Example 90, 6-chloro-7-(5-chloropyrazin-2-yl)-N-[5-(2,2-difluoroethoxy)-4,6-dimethoxy-pyrimidin-2-yl]-1H-indole-3-sulfonamide] | 261 |
| COc1nc(NS(=O)(=O)c2c[nH]c3c(-c4cnc(Cl)cn4)c(Cl)ccc23)nc(OC)c1CC(F)F [Example 91, 6-chloro-7-(5-chloropyrazin-2-yl)-N-[5-(2,2-difluoroethyl)-4,6-dimethoxy-pyrimidin-2-yl]-1H-indole-3-sulfonamide] | 225 |
| COc1nc(NS(=O)(=O)c2c[nH]c3c(-c4cccc(C)n4)c(Cl)ccc23)nc(OC)c1OCC(F)F [Example 92, 6-chloro-N-[5-(2,2-difluoroethoxy)-4,6-dimethoxy-pyrimidin-2-yl]-7-(6-methyl-2-pyridyl)-1H-indole-3-sulfonamide] | 28 |
| COc1nc(NS(=O)(=O)c2c[nH]c3c(-c4cccc(C)n4)c(Cl)ccc23)nc(OC)c1CC(F)F [Example 93, 6-chloro-N-[5-(2,2-difluoroethyl)-4,6-dimethoxy-pyrimidin-2-yl]-7-(6-methyl-2-pyridyl)-1H-indole-3-sulfonamide] | 24 |
| COc1nc(NS(=O)(=O)c2c[nH]c3c(-c4cc(C)ncn4)c(Cl)ccc23)nc(OC)c1OCC(F)F [Example 96, 6-chloro-N-[5-(2,2-difluoroethoxy)-4,6-dimethoxy-pyrimidin-2-yl]-7-(6-methylpyrimidin-4-yl)-1H-indole-3-sulfonamide] | 32 |
| COc1nc(NS(=O)(=O)c2c[nH]c3c(-c4cn(C)nn4)c(Cl)ccc23)nc(OC)c1OCC(F)F [Example 101, 6-chloro-N-[5-(2,2-difluoroethoxy)-4,6-dimethoxy-pyrimidin-2-yl]-7-(1-methyltriazol-4-yl)-1H-indole-3-sulfonamide] | 43 |
| COc1nc(NS(=O)(=O)c2c[nH]c3c(-c4ncccc4C)c(Cl)ccc23)nc(OC)c1CC(F)F [Example 102, 6-chloro-N-[5-(2,2-difluoroethyl)-4,6-dimethoxy-pyrimidin-2-yl]-7-(3-methyl-2-pyridyl)-1H-indole-3-sulfonamide] | 42 |
| COc1nc(NS(=O)(=O)c2c[nH]c3c(-c4ncn(C)n4)c(Cl)ccc23)nc(OC)c1OCC(F)F [Example 104, 6-chloro-N-[5-(2,2-difluoroethoxy)-4,6-dimethoxy-pyrimidin-2-yl]-7-(1-methyl-1,2,4-triazol-3-yl)-1H-indole-3-sulfonamide] | 113 |
| COc1nc(NS(=O)(=O)c2c[nH]c3c(-c4cnn(C)n4)c(Cl)ccc23)nc(OC)c1OCC(F)F [Example 106, 6-chloro-N-[5-(2,2-difluoroethoxy)-4,6-dimethoxy-pyrimidin-2-yl]-7-(2-methyltriazol-4-yl)-1H-indole-3-sulfonamide] | 34 |
| COc1nc(NS(=O)(=O)c2c[nH]c3c(-c4cnn(C)n4)c(Cl)ccc23)nc(OC)c1CC(F)F [Example 108, 6-chloro-N-[5-(2,2-difluoroethyl)-4,6-dimethoxy-pyrimidin-2-yl]-7-(2-methyltriazol-4-yl)-1H-indole-3-sulfonamide] | 32 |
| COc1nc(NS(=O)(=O)c2c[nH]c3c(-c4cnn(C)n4)c(Cl)ccc23)nc(OC)c1OCCF [Example 109, 6-chloro-N-[5-(2-fluoroethoxy)-4,6-dimethoxy-pyrimidin-2-yl]-7-(2-methyltriazol-4-yl)-1H-indole-3-sulfonamide] | 36 |
| COc1nc(NS(=O)(=O)c2c[nH]c3c(-c4nnco4)c(Cl)ccc23)nc(OC)c1OCC(F)F [Example 110, 6-chloro-N-[5-(2,2-difluoroethoxy)-4,6-dimethoxy-pyrimidin-2-yl]-7-(1,3,4-oxadiazol-2-yl)-1H-indole-3-sulfonamide] | 46 |
| COc1nc(NS(=O)(=O)c2c[nH]c3c(-c4cnn(C)c4)c(Cl)ccc23)nc(OC)c1OCC(F)F [Example 111, 6-chloro-N-[5-(2,2-difluoroethoxy)-4,6-dimethoxy-pyrimidin-2-yl]-7-(1-methylpyrazol-4-yl)-1H-indole-3-sulfonamide] | 53 |
| COc1nc(NS(=O)(=O)c2c[nH]c3c(-c4cnn(C)c4)c(Cl)ccc23)nc(OC)c1OCCF [Example 112, 6-chloro-N-[5-(2-fluoroethoxy)-4,6-dimethoxy-pyrimidin-2-yl]-7-(1-methylpyrazol-4-yl)-1H-indole-3-sulfonamide] | 52 |

The next lines start with the values.

| IC50 [nM] | Compound |
| --- | --- |
| 97 | COc1nc(NS(=O)(=O)c2c[nH]c3c(-c4cnc(C)cn4)c(Cl)ccc23)nc(OC)c1OC(F)F [Example 83, 6-chloro-N-[5-(difluoromethoxy)-4,6-dimethoxy-pyrimidin-2-yl]-7-(5-methylpyrazin-2-yl)-1H-indole-3-sulfonamide] |
| 31 | COc1nc(NS(=O)(=O)c2c[nH]c3c(-c4cncc(C)n4)c(Cl)ccc23)nc(OC)c1OC(F)F [Example 87, 6-chloro-N-[5-(difluoromethoxy)-4,6-dimethoxy-pyrimidin-2-yl]-7-(6-methylpyrazin-2-yl)-1H-indole-3-sulfonamide] |
| 20 | COc1nc(NS(=O)(=O)c2c[nH]c3c(-c4cccc(C)n4)c(Cl)ccc23)nc(OC)c1OC(F)F [Example 94, 6-chloro-N-[5-(difluoromethoxy)-4,6-dimethoxy-pyrimidin-2-yl]-7-(6-methyl-2-pyridyl)-1H-indole-3-sulfonamide] |
| 46 | COc1nc(NS(=O)(=O)c2c[nH]c3c(-c4ccnnc4)c(Cl)ccc23)nc(OC)c1OCC(F)F [Example 95, 6-chloro-N-[5-(2,2-difluoroethoxy)-4,6-dimethoxy-pyrimidin-2-yl]-7-pyridazin-4-yl-1H-indole-3-sulfonamide] |
| 34 | COc1nc(NS(=O)(=O)c2c[nH]c3c(-c4nccnc4F)c(Cl)ccc23)nc(OC)c1CC(F)F [Example 97, 6-chloro-N-[5-(2,2-difluoroethyl)-4,6-dimethoxy-pyrimidin-2-yl]-7-(3-fluoropyrazin-2-yl)-1H-indole-3-sulfonamide] |
| 35 | COc1nc(NS(=O)(=O)c2c[nH]c3c(-c4nccnc4F)c(Cl)ccc23)nc(OC)c1OCC(F)F [Example 98, 6-chloro-N-[5-(2,2-difluoroethoxy)-4,6-dimethoxy-pyrimidin-2-yl]-7-(3-fluoropyrazin-2-yl)-1H-indole-3-sulfonamide] |
| 38 | COc1nc(NS(=O)(=O)c2c[nH]c3c(-c4nccnc4F)c(Cl)ccc23)nc(OC)c1OC(F)F [Example 99, 6-chloro-N-[5-(difluoromethoxy)-4,6-dimethoxy-pyrimidin-2-yl]-7-(3-fluoropyrazin-2-yl)-1H-indole-3-sulfonamide] |
| 40 | COc1nc(NS(=O)(=O)c2c[nH]c3c(-c4ncccc4C)c(Cl)ccc23)nc(OC)c1OCC(F)F [Example 100, 6-chloro-N-[5-(2,2-difluoroethoxy)-4,6-dimethoxy-pyrimidin-2-yl]-7-(3-methyl-2-pyridyl)-1H-indole-3-sulfonamide] |
| 54 | COc1nc(NS(=O)(=O)c2c[nH]c3c(-c4ncccc4C)c(Cl)ccc23)nc(OC)c1OC(F)F [Example 103, 6-chloro-N-[5-(difluoromethoxy)-4,6-dimethoxy-pyrimidin-2-yl]-7-(3-methyl-2-pyridyl)-1H-indole-3-sulfonamide] |
| 221 | COc1nc(NS(=O)(=O)c2c[nH]c3c(-c4ncc(F)cn4)c(Cl)ccc23)nc(OC)c1OCC(F)F [Example 105, 6-chloro-N-[5-(2,2-difluoroethoxy)-4,6-dimethoxy-pyrimidin-2-yl]-7-(5-fluoropyrimidin-2-yl)-1H-indole-3-sulfonamide] |
| 76 | COc1nc(NS(=O)(=O)c2c[nH]c3c(-c4cnn(C)n4)c(Cl)ccc23)nc(OC)c1OC(F)F [Example 107, 6-chloro-N-[5-(difluoromethoxy)-4,6-dimethoxy-pyrimidin-2-yl]-7-(2-methyltriazol-4-yl)-1H-indole-3-sulfonamide] |
